Earlier results on one molecule are cited in US20170022147A1, “FUMARATE COMPOUNDS, PHARMACEUTICAL COMPOSITIONS THEREOF, AND METHODS OF USE” (priority 2015, published 2017).

For `COC(=O)/C=C/C(=O)OC` [DMF, dimethylfumarate], the aqueous solubility entry was “poor”.
